In the experiment the target is CDK-2 (Homo sapiens, UniProt P24941). The experiment is described as follows: CDK-2 inhibition, fluorescence polarization displacement assay. For orientation: In fluorescence polarisation assays a small probe gives low polarisation when free and higher when bound to something large.

Method: Binding assays were performed in a 384 well Costar NBS coated plate. […] The concentration of BMS-Alexa Fluor647 was 50 nM. Serial dilutions of compounds were added to 12 wells. The final buffer concentration was 10 mM Hepes, pH 7.5, 150 mM NaCl, and 1 mM DTT. Samples were incubated at room temperature for 15 minutes and then read in an Analyst HT instrument using an excitation and emission wavelength of 580 and 680 nm, respectively.

Regarding `COC(=O)[C@H](Cc1ccc(O)cc1)NC(=O)c1cc(C(=O)O)c2cc(/C=C/c3ccc(F)cc3)ccc2n1` [Compound 6], the IC50 (commonly the concentration needed to halve the response being measured) was less than 1000 nM.
Under `COC(=O)[C@H](Cc1ccc(O)cc1)NC(=O)c1cc(C(=O)O)c2cc(CCc3ccc(C(F)(F)F)cc3)ccc2n1` [Compound 8] stands less than 1000 nM; under `COC(=O)[C@H](Cc1ccc(O)cc1)NC(=O)c1cc(C(=O)O)c2cc(/C=C/C(C)(C)C)ccc2n1` [Compound 11], less than 1000 nM.
Under `CNC(=O)[C@H](Cc1ccc(O)cc1)NC(=O)c1cc(C(=O)O)c2cc(/C=C/c3ccc(Cl)cc3)ccc2n1` [Compound 14] stands less than 1000 nM; under `COC[C@H](Cc1ccc(O)cc1)NC(=O)c1cc(C(=O)O)c2cc(-c3cccc(Cn4ccccc4=O)c3)ccc2n1` [Compound 26], less than 1000 nM; under `COC[C@H](Cc1ccc(O)cc1)NC(=O)c1cc(NS(=O)(=O)C(C)(C)C)c2cc(-c3cccc(COc4ccccn4)c3)ccc2n1` [Compound 27], less than 1000 nM.
For `COC(=O)[C@H](Cc1ccc(O)cc1)NC(=O)c1cc(C(=O)O)c2cc(-c3cccc(C(C)C)c3)ccc2n1` [Compound 30] the value was less than 1000 nM; for `COC(=O)[C@H](Cc1ccc(O)cc1)NC(=O)c1cc(C(=O)O)c2cc(CCc3ccc(F)cc3)ccc2n1` [Compound 31], less than 1000 nM; for `COC(=O)[C@H](Cc1ccc(O)cc1)NC(=O)c1cc(C(=O)O)c2cc(-c3cccc([N+](=O)[O-])c3)ccc2n1` [Compound 33], less than 1000 nM.
`CN(C)C(=O)[C@H](Cc1ccc(O)cc1)NC(=O)c1cc(C(=O)O)c2cc(/C=C/c3ccc(Cl)cc3)ccc2n1` [Compound 34] registered an IC50 of less than 1000 nM.
Under `COC(=O)[C@H](Cc1ccc(O)cc1)NC(=O)c1cc(C(=O)O)c2cc(-c3cccc(C#N)c3)ccc2n1` [Compound 36] stands less than 1000 nM; under `COC(=O)[C@H](Cc1ccc(O)cc1)NC(=O)c1cc(C(=O)O)c2cc(-c3cc4ccccc4o3)ccc2n1` [Compound 38], less than 1000 nM; under `COC(=O)[C@H](Cc1ccc(O)cc1)NC(=O)c1cc(C(=O)O)c2cc(-c3ccc(F)c(C)c3)ccc2n1` [Compound 41], less than 1000 nM.
For `COC(=O)[C@H](Cc1ccc(O)cc1)NC(=O)c1cc(C(=O)O)c2cc(-c3cccc(-c4ccccc4)c3)ccc2n1` [Compound 42] the value was less than 1000 nM.
Compound `O=C(N[C@@H](Cc1ccc(O)cc1)C(=O)NC1CC1)c1cc(C(=O)O)c2cc(/C=C/c3ccc(Cl)cc3)ccc2n1` [Compound 44] gave an IC50 of less than 1000 nM.
Under `COC(=O)[C@H](Cc1ccc(O)cc1)NC(=O)c1cc(C(=O)O)c2cc(-c3cccc(C)c3)ccc2n1` [Compound 48] stands less than 1000 nM; under `COC(=O)[C@H](Cc1ccc(O)cc1)NC(=O)c1cc(C(=O)O)c2cc(-c3ccc(C)c([N+](=O)[O-])c3)ccc2n1` [Compound 49], less than 1000 nM; under `COC(=O)[C@H](Cc1ccc(O)cc1)NC(=O)c1cc(C(=O)O)c2cc(-c3ccc(F)c(Cl)c3)ccc2n1` [Compound 50], less than 1000 nM.
For `COC(=O)[C@H](Cc1ccc(O)cc1)NC(=O)c1cc(C(=O)O)c2cc(-c3ccc(Oc4ccccc4)cc3)ccc2n1` [Compound 51] the value was less than 1000 nM.
For `COC(=O)[C@H](Cc1ccc(O)cc1)NC(=O)c1cc(C(=O)O)c2cc(CCC(C)(C)C)ccc2n1` [Compound 52] the value was less than 1000 nM; for `CCCC(Cc1ccc(O)cc1)NC(=O)c1cc(C(=O)O)c2cc(-c3cccc(C(F)(F)F)c3)ccc2n1` (stereo not shown) [Compound 54], less than 1000 nM; for `COC(=O)[C@H](Cc1ccc(O)cc1)NC(=O)c1cc(C(=O)O)c2cc(-c3cc4ccccc4s3)ccc2n1` [Compound 58], less than 1000 nM.
Compound `COC(=O)[C@H](Cc1ccc(O)cc1)NC(=O)c1cc(C(=O)O)c2cc(CCc3ccccc3)ccc2n1` [Compound 60] had a half-inhibitory concentration (IC50) of less than 1000 nM.
On to `O=C(NC(Cc1ccc(O)cc1)C1CCCCC1)c1cc(C(=O)O)c2cc(-c3cccc(C(F)(F)F)c3)ccc2n1` (stereo not shown) [Compound 63], for which the IC50 was less than 1000 nM.
As to `COC(=O)[C@H](Cc1ccc(O)cc1)NC(=O)c1cc(NS(C)(=O)=O)c2cc(-c3cccc(C(F)(F)F)c3)ccc2n1` [Compound 64], the IC50 was less than 1000 nM.
In turn, `COC(=O)[C@H](Cc1ccc(O)cc1)NC(=O)c1cc(C(=O)O)c2cc(-c3cc(C)cc(C)c3)ccc2n1` [Compound 67] came in with an IC50 of less than 1000 nM.
For `COC(=O)[C@H](Cc1ccc(O)cc1)NC(=O)c1cc(C(=O)O)c2cc(-c3ccc(Cl)c(Cl)c3)ccc2n1` [Compound 69] the value was less than 1000 nM; for `COC[C@H](Cc1ccc(O)cc1)NC(=O)c1cc(S(=O)(=O)O)c2cc(-c3cccc(C(F)(F)F)c3)ccc2n1` [Compound 71], less than 1000 nM.
For `COC(=O)[C@H](Cc1ccc(O)cc1)NC(=O)c1cc(C(=O)O)c2cc(-c3ccc(C(C)C)cc3)ccc2n1` [Compound 72] the value was less than 1000 nM.
For `COC(=O)[C@H](Cc1ccc(O)cc1)NC(=O)c1cc(C(=O)O)c2cc(-c3ccc(OC)cc3)ccc2n1` [Compound 76] the value was less than 1000 nM; for `COC(=O)[C@H](Cc1ccc(O)cc1)NC(=O)c1cc(C(=O)O)c2cc(-c3cccs3)ccc2n1` [Compound 81], less than 1000 nM.
Turning to `COC(=O)[C@H](Cc1ccc(O)cc1)NC(=O)c1cc(C(=O)O)c2cc(-c3ccc(C)s3)ccc2n1` [Compound 82], the IC50 was less than 1000 nM.
For the compound `COC(=O)[C@H](Cc1ccc(O)cc1)NC(=O)c1cc(C(=O)O)c2cc(-c3ccc(Cl)cc3)ccc2n1` [Compound 83], the IC50 was less than 1000 nM.
`O=C(N[C@@H](Cc1ccc(O)cc1)c1ncc[nH]1)c1cc(C(=O)O)c2cc(-c3cccc(C(F)(F)F)c3)ccc2n1` [Compound 86] displayed an IC50 of less than 1000 nM.
For `COC[C@H](Cc1ccc(O)cc1)NC(=O)c1cc(-c2nnn[nH]2)c2cc(-c3cccc(C(F)(F)F)c3)ccc2n1` [Compound 87] the value was less than 1000 nM.
For `COC(=O)[C@H](Cc1ccc(O)cc1)NC(=O)c1cc(C(=O)O)c2cc(-c3cccc(OC)c3)ccc2n1` [Compound 91] the value was 1000 to 40000 nM.
Consider `COC(=O)[C@H](Cc1ccc(O)cc1)NC(=O)c1cc(C(=O)O)c2cc(-c3ccc(Cl)c(F)c3)ccc2n1` [Compound 92], for which the IC50 fell in the range of 1000 to 40000 nM.
For `COC(=O)[C@H](Cc1ccc(O)cc1)NC(=O)c1cc(C(=O)O)c2cc(-c3cccc(F)c3)ccc2n1` [Compound 93] the value was 1000 to 40000 nM; for `COC[C@H](Cc1ccc(O)cc1)NC(=O)c1cc(C(=O)NS(C)(=O)=O)c2cc(-c3cccc(C(F)(F)F)c3)ccc2n1` [Compound 95], 1000 to 40000 nM; for `NC[C@H](Cc1ccc(O)cc1)NC(=O)c1cc(C(=O)O)c2cc(CCc3ccc(Cl)cc3)ccc2n1` [Compound 97], 1000 to 40000 nM.
For `COC[C@H](Cc1ccc(O)cc1)NC(=O)c1cc(NS(=O)(=O)C(C)(C)C)c2cc(-c3cccc(COc4cccc[n+]4[O-])c3)ccc2n1` [Compound 98] the value was 1000 to 40000 nM; for `O=C(N[C@@H](Cc1ccc(O)cc1)c1cnco1)c1cc(C(=O)O)c2cc(-c3cccc(C(F)(F)F)c3)ccc2n1` [Compound 99], 1000 to 40000 nM.
Consider `COC(=O)[C@H](Cc1ccc(O)cc1)NC(=O)c1cc(C(=O)O)c2cc(-c3ccc(C)cc3)ccc2n1` [Compound 103], for which the IC50 lay within 1000 to 40000 nM.
As for `COC(=O)[C@H](Cc1ccc(O)cc1)NC(=O)c1cc(C(=O)O)c2cc(-c3cccc(C(C)=O)c3)ccc2n1` [Compound 104], the IC50 lay in the range of 1000 to 40000 nM.
For `COC(=O)[C@H](Cc1ccc(O)cc1)NC(=O)c1cc(C(=O)O)c2cc(-c3ccc(N(C)C)cc3)ccc2n1` [Compound 107] the value was 1000 to 40000 nM; for `CC(Cc1ccc(O)cc1)NC(=O)c1cc(C(=O)O)c2cc(-c3cccc(C(F)(F)F)c3)ccc2n1` (stereo not shown) [Compound 110], 1000 to 40000 nM; for `COC(=O)[C@H](Cc1ccc(O)cc1)NC(=O)c1cc(C(=O)O)c2cc(-c3cc(C(F)(F)F)cc(C(F)(F)F)c3)ccc2n1` [Compound 112], 1000 to 40000 nM.
Under `COC(=O)[C@H](Cc1ccc(O)cc1)NC(=O)c1cc(C(=O)O)c2cc(-c3ccc(OC)c(F)c3)ccc2n1` [Compound 113] stands 1000 to 40000 nM.
Under `N#CC[C@H](Cc1ccc(O)cc1)NC(=O)c1cc(C(=O)O)c2cc(CCc3ccccc3)ccc2n1` [Compound 116] stands 1000 to 40000 nM; under `COC[C@H](Cc1ccc(O)cc1)NC(=O)c1cc(C(=O)O)c2cc(C#Cc3ccccn3)ccc2n1` [Compound 125], 1000 to 40000 nM.
Regarding `COC[C@H](Cc1ccc(O)cc1)NC(=O)c1cc(C(=O)O)c2cc(COc3ccc(C(F)(F)F)cc3)ccc2n1` [Compound 129], the IC50 lay in the range of 1000 to 40000 nM.
Under `COC(=O)[C@H](Cc1ccc(O)cc1)NC(=O)c1cc(C(=O)O)c2cc(-c3cccnc3)ccc2n1` [Compound 130] stands 1000 to 40000 nM; under `COC(=O)[C@H](Cc1ccc(O)cc1)NC(=O)c1cc(C(=O)O)c2cc(-c3ccc4ccccc4c3)ccc2n1` [Compound 133], 1000 to 40000 nM.
Under `COC(=O)[C@H](Cc1ccc(O)cc1)NC(=O)c1cc(C(=O)O)c2cc(-c3ccc(F)cc3)ccc2n1` [Compound 135] stands 1000 to 40000 nM.
Under `COC[C@H](Cc1ccc(O)cc1)NC(=O)c1cc(NS(=O)(=O)C(C)(C)C)c2cc(-c3cccc(N4CCOCC4)c3)ccc2n1` [Compound 136] stands 1000 to 40000 nM.
`COC[C@H](Cc1ccc(O)cc1)NC(=O)c1cc(C(=O)O)c2cc(C#Cc3cccnc3)ccc2n1` [Compound 137] gave a concentration for half-maximal inhibition (IC50) of 1000 to 40000 nM.
For `COC[C@H](Cc1ccc(O)cc1)NC(=O)c1cc(NS(=O)(=O)C(C)(C)C)c2cc(-c3cccc(COc4cccnc4)c3)ccc2n1` [Compound 139] the value was 1000 to 40000 nM.
Under `COC[C@H](Cc1ccc(O)cc1)NC(=O)c1cc(C(=O)O)c2cc(-c3cccc(COc4cccnc4)c3)ccc2n1` [Compound 141] stands 1000 to 40000 nM.
Under `COC(=O)[C@H](Cc1ccc(O)cc1)NC(=O)c1cc(C(=O)O)c2cc(-c3ccc(N)cc3)ccc2n1` [Compound 145] stands 1000 to 40000 nM; under `COC[C@H](Cc1ccc(O)cc1)NC(=O)c1cc(C(=O)O)c2cc(COc3ccc(Cl)c(F)c3)ccc2n1` [Compound 146], 1000 to 40000 nM; under `COC[C@H](Cc1ccc(O)cc1)NC(=O)c1cc(C(=O)O)c2cc(C#Cc3ccccc3C(F)(F)F)ccc2n1` [Compound 148], 1000 to 40000 nM.

(Values after patent EP1931657B1, “NOVEL HIGH AFFINITY QUINOLINE-BASED KINASE LIGANDS” (Merck Sharp & Dohme Corp., priority 2005, dated 2007).)
